In US11684603B2, “Neuraminidase inhibition to improve glycocalyx volume and function to ameliorate cardiovascular diseases in pathologies associated with glycocalyx damage” (priority 2017, dated 2023):

How the values were obtained:
[1] = tested on: glycocalyx; settings: patients with familial hypercholesterolemia, short term treatment; cited from earlier work
[2] = tested on: human endothelial cells; assay: Wheat Germ Agglutinin (WGA) staining of the glycocalyx of cultured human endothelial cells; format: cell-based; settings: neuraminidase plus Zanamivir for 1 hour
[3] = tested on: femoral arteries; assay: Flow mediated dilation in isolated femoral arteries from treated db/db mice; format: in vivo; settings: 5 mg twice a day via inhalation for 5 days, vs placebo control; increasing shear stress
Text: Vessels were pre-constricted with phenylephrine and exposed to increasing shear stress (dynes/cm^2) to assess flow mediated dilation. […] Data represent mean+/−SEM, *P<0.05, determined by two-tailed Student t test.

[4] = tested on: femoral arteries; assay: Vasodilation of pre-constricted femoral arteries from treated db/db mice to insulin, acetylcholine or sodium nitroprusside; format: in vivo; settings: 5 mg twice a day via inhalation for 5 days, vs vehicle cohort
Text: In a separate set of experiments, vessels were pre-constricted and exposed to increasing concentrations of insulin (FIG. 8C) or endothelium-dependent vasodilator, acetylcholine (FIG. 8D). […] Data represent mean+/−SEM, *P<0.05, determined by two-tailed Student t test.
(§1) Data represent mean+/−SEM, *P<0.05, determined by two-tailed Student t test.

[5] = tested on: isolated aortas; assay: Atomic force microscopy of aortic endothelial stiffness in treated db/db mice; format: in vivo; settings: 5 mg twice a day via inhalation for 5 days, vs vehicle
Text: as §1

| SMILES | glycocalyx volume [1] | plasma hyaluronidase activity [1] | effect on the neuraminidase-induced reduction in WGA staining [2] | flow mediated dilation [3] | endothelial dependent vasodilatory response to acetylcholine ([4]; increasing concentrations of acetylcholine) | endothelial dependent vasodilatory response to insulin ([4]; increasing concentrations of insulin) | aortic endothelial stiffness [5] |
| --- | --- | --- | --- | --- | --- | --- | --- |
| CC(C)c1nc(N(C)S(C)(=O)=O)nc(-c2ccc(F)cc2)c1/C=C/[C@@H](O)C[C@@H](O)CC(=O)O [Rosuvastatin] | partially restored glycocalyx volume | increase in plasma hyaluronidase activity |  |  |  |  |  |
| CC(=O)NC1C(NC(=N)N)C=C(C(=O)O)OC1C(O)C(O)CO (stereo not shown) [Zanamivir, 5-acetamido-4-guanidino-6-(1,2,3-trihydroxypropyl)-5,6-dihydro-4H-pyran-2-carboxylic acid] |  |  | attenuated | significantly improved | greater | greater | significant reduction |
